Measured values as given in ChEMBL document CHEMBL6078677, “Discovery and optimization of tetrahydroacridine derivatives as a novel class of antibiotics against multidrug-resistant Gram-positive pathogens by targeting type I signal peptidase and disrupting bacterial membrane” (Eur J Med Chem, 2025).
≈ marks a conversion by molar mass, not a printed value.

How the values were obtained:
Salmonella enteritidis = assay: Antimicrobial activity against Salmonella enteritis S1 assessed as inhibition of visible growth of bacteria incubated for 20 hrs by broth microdilution method; format: functional, Salmonella enterica subsp. enterica serovar Enteritidis; conditions: Salmonella enterica
Klebsiella pneumoniae = assay: Antimicrobial activity against Klebsiella pneumoniae 9-1 assessed as inhibition of visible growth of bacteria incubated for 20 hrs by broth microdilution method; format: functional
Streptococcus suis [1] = assay: microbe, parasite or virus in culture; format: functional; conditions: SH0918, time 20 hrs
Description: Antimicrobial activity against Streptococcus suis SH0918 harboring erythromycin-resistance rRNA methylase B, tetracycline efflux protein O and oxazolidinone phenicol transferable resistance gene assessed as inhibition of visible growth of bacteria incubated for 20 hrs by broth microdilution method

Streptococcus pyogenes = assay: Antimicrobial activity against Streptococcus pyogenes DL02 harboring erythromycin-resistance rRNA methylase B assessed as inhibition of visible growth of bacteria incubated for 20 hrs by broth microdilution method; format: functional
Enterococcus faecium [2] = assay: Antimicrobial activity against Enterococcus faecium HFY01 assessed as inhibition of visible growth of bacteria incubated for 20 hrs by broth microdilution method; format: functional
Acinetobacter baumannii [3] = assay: Antimicrobial activity against Acinetobacter baumannii 7979 assessed as inhibition of visible growth of bacteria incubated for 20 hrs by broth microdilution method; format: functional
Staphylococcus aureus [4] = assay: Antimicrobial activity against Staphylococcus aureus YZSA-24 harboring erythromycin resistance rRNA methylase C and methicillin resistance gene resistance locus assessed as inhibition of visible growth of bacteria incubated for 20 hrs by broth microdilution method; format: functional
Staphylococcus aureus [5] = assay: Antimicrobial activity against Staphylococcus aureus YZSA-21 harboring erythromycin resistance rRNA methylase C assessed as inhibition of visible growth of bacteria incubated for 20 hrs by broth microdilution method; format: functional
Enterococcus faecium [6] = assay: Antimicrobial activity against Enterococcus faecium MC38 harboring erythromycin resistance rRNA methylase B and oxazolidinone-phenicol transferable resistance gene assessed as inhibition of visible growth of bacteria incubated for 20 hrs by broth microdilution method; format: functional
Streptococcus agalactiae = assay: Antimicrobial activity against Streptococcus agalactiae DL03 harboring erythromycin-resistance rRNA methylase B assessed as inhibition of visible growth of bacteria incubated for 20 hrs by broth microdilution method; format: functional
Pseudomonas aeruginosa [7] = assay: Antimicrobial activity against Pseudomonas aeruginosa PA01 assessed as inhibition of visible growth of bacteria incubated for 20 hrs by broth microdilution method; format: functional
Streptococcus suis [8] = assay: Antimicrobial activity against Streptococcus suis P1/7 assessed as inhibition of visible growth of bacteria incubated for 20 hrs by broth microdilution method; format: functional
Enterococcus faecalis [9] = assay: Antimicrobial activity against Enterococcus faecalis J2 harboring erythromycin-resistance rRNA methylase B and oxazolidinone phenicol transferable resistance gene assessed as inhibition of visible growth of bacteria incubated for 20 hrs by broth microdilution method; format: functional
Enterococcus faecium [10] = assay: Antimicrobial activity against Enterococcus faecium QF31 harboring erythromycin resistance rRNA methylase B and chloramphenicol-florfenicol resistance methylase assessed as inhibition of visible growth of bacteria incubated for 20 hrs by broth microdilution method; format: functional
Enterococcus faecalis [11] = assay: Antimicrobial activity against Enterococcus faecalis ES01 harboring erythromycin-resistance rRNA methylase B and vanB-type vancomycin-resistance locus assessed as inhibition of visible growth of bacteria incubated for 20 hrs by broth microdilution method; format: functional
Staphylococcus aureus [12] = assay: Antimicrobial activity against Staphylococcus aureus YZSA-15 harboring erythromycin resistance rRNA methylase C and vancomycin resistance locus assessed as inhibition of visible growth of bacteria incubated for 20 hrs by broth microdilution method; format: functional
Acinetobacter baumannii [13] = assay: Antimicrobial activity against Acinetobacter baumannii AB11 assessed as inhibition of visible growth of bacteria incubated for 20 hrs by broth microdilution method; format: functional
Staphylococcus aureus [14] = assay: microbe, parasite or virus in culture; format: functional; conditions: M92-1, time 20 hrs
Description: Antimicrobial activity against Staphylococcus aureus M92-1 harboring erythromycin resistance rRNA methylase B, tetracycline efflux protein L and oxazolidinone-phenicol transferable resistance gene assessed as inhibition of visible growth of bacteria incubated for 20 hrs by broth microdilution method

Escherichia coli = assay: Antimicrobial activity against Escherichia coli ATCC 25922 assessed as inhibition of visible growth of bacteria incubated for 20 hrs by broth microdilution method; format: functional
Enterococcus faecalis [15] = assay: Antimicrobial activity against Enterococcus faecalis JH2-2 assessed as inhibition of visible growth of bacteria incubated for 20 hrs by broth microdilution method; format: functional
Enterococcus faecalis [16] = assay: microbe, parasite or virus in culture; format: functional; conditions: SF23-1, time 20 hrs
Description: Antimicrobial activity against Enterococcus faecalis SF23-1 harboring erythromycin-resistance rRNA methylase B, tetracycline efflux protein L and chloramphenicol-florfenicol resistance methylase assessed as inhibition of visible growth of bacteria incubated for 20 hrs by broth microdilution method

Pseudomonas aeruginosa [17] = assay: Antimicrobial activity against Pseudomonas aeruginosa PA14 assessed as inhibition of visible growth of bacteria incubated for 20 hrs by broth microdilution method; format: functional
Staphylococcus aureus [18] = assay: microbe, parasite or virus in culture; format: functional; conditions: M147-2, time 20 hrs
Description: Antimicrobial activity against Staphylococcus aureus M147-2 harboring erythromycin resistance rRNA methylase B, tetracycline efflux protein L and chloramphenicol-florfenicol resistance methylase assessed as inhibition of visible growth of bacteria incubated for 20 hrs by broth microdilution method

Staphylococcus aureus [19] = assay: Antimicrobial activity against Staphylococcus aureus ATCC 29213 assessed as inhibition of visible growth of bacteria incubated for 20 hrs by broth microdilution method; format: functional

SMILES | MIC (Salmonella enteritidis) [µg/mL] | MIC (Klebsiella pneumoniae) [µg/mL] | MIC (Streptococcus suis [1]) [µg/mL] | MIC (Streptococcus pyogenes) [µg/mL] | MIC (Enterococcus faecium [2]) [µg/mL] | MIC (Acinetobacter baumannii [3]) [µg/mL] | MIC (Staphylococcus aureus [4]) [µg/mL] | MIC (Staphylococcus aureus [5]) [µg/mL] | MIC (Enterococcus faecium [6]) [µg/mL] | MIC (Streptococcus agalactiae) [µg/mL] | MIC (Pseudomonas aeruginosa [7]) [µg/mL] | MIC (Streptococcus suis [8]) [µg/mL] | MIC (Enterococcus faecalis [9]) [µg/mL] | MIC (Enterococcus faecalis [11]) [µg/mL] | MIC (Staphylococcus aureus [12]) [µg/mL] | MIC (Acinetobacter baumannii [13]) [µg/mL] | MIC (Escherichia coli) [µg/mL] | MIC (Enterococcus faecalis [15]) [µg/mL] | MIC (Enterococcus faecalis [16]) [µg/mL] | MIC (Pseudomonas aeruginosa [17]) [µg/mL] | also measured
CCC[C@@H]1C[C@@H](C(=O)N[C@@H]([C@H]2O[C@H](SC)[C@H](O)[C@@H](O)[C@H]2O)[C@H](C)Cl)N(C)C1 [CLINDAMYCIN] | > 32 | > 32 | > 32 | > 32 | 0.5 (≈ 1.18 µM) | > 32 | > 32 | > 32 | > 32 | > 32 | > 32 | 0.125 (≈ 0.294 µM) | > 32 | > 32 | > 32 | 0.5 (≈ 1.18 µM) | > 32 | 0.5 (≈ 1.18 µM) | > 32 | > 32 | MIC (Enterococcus faecium [10]): > 32 µg/mL; MIC (Staphylococcus aureus [14]): > 32 µg/mL; MIC (Staphylococcus aureus [18]): > 32 µg/mL; MIC (Staphylococcus aureus [19]): 0.125 µg/mL (≈ 0.294 µM)
C[C@H]1c2cccc(O)c2C(=O)C2=C(O)[C@]3(O)C(=O)C(C(N)=O)=C(O)[C@@H](N(C)C)[C@@H]3[C@@H](O)[C@@H]21 [DOXYCYCLINE ANHYDROUS] | > 32 | > 32 | 16 (≈ 36 µM) | 2 (≈ 4.5 µM) | < 0.06 | > 32 | 0.5 (≈ 1.13 µM) | 0.25 (≈ 0.563 µM) | 16 (≈ 36 µM) | < 0.06 | 8 (≈ 18 µM) | 0.125 (≈ 0.281 µM) | 8 (≈ 18 µM) | 2 (≈ 4.5 µM) | 0.25 (≈ 0.563 µM) | < 0.06 | 1 (≈ 2.25 µM) | 4 (≈ 9 µM) | 16 (≈ 36 µM) | 16 (≈ 36 µM) | MIC (Enterococcus faecium [10]): 16 µg/mL (≈ 36 µM); MIC (Staphylococcus aureus [14]): > 32 µg/mL; MIC (Staphylococcus aureus [18]): > 32 µg/mL; MIC (Staphylococcus aureus [19]): 0.25 µg/mL (≈ 0.563 µM)
CC[C@H]1OC(=O)[C@H](C)[C@@H](O[C@H]2C[C@@](C)(OC)[C@@H](O)[C@H](C)O2)[C@H](C)[C@@H](O[C@@H]2O[C@H](C)C[C@H](N(C)C)[C@H]2O)[C@](C)(O)C[C@@H](C)C(=O)[C@H](C)[C@@H](O)[C@]1(C)O [ERYTHROMYCIN] | – | – | > 32 | > 32 | 2 (≈ 2.73 µM) | – | > 32 | > 32 | > 32 | > 32 | – | 0.125 (≈ 0.17 µM) | > 32 | > 32 | > 32 | – | – | 0.25 (≈ 0.341 µM) | > 32 | – | MIC (Enterococcus faecium [10]): > 32 µg/mL; MIC (Staphylococcus aureus [14]): > 32 µg/mL; MIC (Staphylococcus aureus [18]): > 32 µg/mL; MIC (Staphylococcus aureus [19]): 1 µg/mL (≈ 1.36 µM)
C[C@H]1COc2c(N3CCN(C)CC3)c(F)cc3c(=O)c(C(=O)O)cn1c23 [LEVOFLOXACIN ANHYDROUS] | 0.5 (≈ 1.38 µM) | > 32 | – | – | – | > 32 | – | – | – | – | 0.5 (≈ 1.38 µM) | – | – | – | – | 0.125 (≈ 0.346 µM) | 0.125 (≈ 0.346 µM) | – | – | 0.125 (≈ 0.346 µM) | –
C[C@@H](O)[C@H]1C(=O)N2C(C(=O)O)=C(S[C@@H]3CN[C@H](C(=O)N(C)C)C3)[C@H](C)[C@H]12 [MEROPENEM] | 0.25 (≈ 0.652 µM) | 4 (≈ 10.4 µM) | – | – | – | > 32 | – | – | – | – | 0.5 (≈ 1.3 µM) | – | – | – | – | < 0.06 | 0.25 (≈ 0.652 µM) | – | – | 0.5 (≈ 1.3 µM) | –
CN[C@H](CC(C)C)C(=O)N[C@H]1C(=O)N[C@@H](CC(N)=O)C(=O)N[C@H]2C(=O)N[C@H]3C(=O)N[C@H](C(=O)N[C@H](C(=O)O)c4cc(O)cc(O)c4-c4cc3ccc4O)[C@H](O)c3ccc(c(Cl)c3)Oc3cc2cc(c3O[C@@H]2O[C@H](CO)[C@@H](O)[C@H](O)[C@H]2O[C@H]2C[C@](C)(N)[C@H](O)[C@H](C)O2)Oc2ccc(cc2Cl)[C@H]1O [VANCOMYCIN] | – | – | < 0.06 | < 0.06 | – | – | < 0.06 | – | – | 0.125 (≈ 0.0863 µM) | – | < 0.06 | 2 (≈ 1.38 µM) | 16 (≈ 11 µM) | 16 (≈ 11 µM) | – | – | 2 (≈ 1.38 µM) | 2 (≈ 1.38 µM) | – | –
